ChEMBL document CHEMBL1201862, “PubChem BioAssay data set” (2004)
Active and inactive are the calls of the source.

Legend:
[1] = target: COUP transcription factor 2 (Homo sapiens, UniProt P24468); experiment: Luminescence-based cell-based high throughput dose response assay to identify inhibitors of COUP-TFII (NR2F2).; format: functional;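 also: HEK293 cells transiently cotransfected with COUP-TFII expression vector and reporter; luciferase reporter luminescence driven by COUP-TFII from the pX2-168 reporter plasmid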
[2] = target: T1, Heat shock factor protein 1 (Mus musculus, UniProt P38532); experiment: decrease of HSF1-responsive luciferase luminescence – cell-based, NIH3T3, dose retest, confirmation (AID 2382); format: functional;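 also: NIH3T3 fibroblasts with HSF1-driven luciferase reporter stressed by proteasome inhibitor MG132; luminescence from HSF1-driven luciferase expression after 8 hours of MG132 stress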
T1 sequence (P38532 whole entry): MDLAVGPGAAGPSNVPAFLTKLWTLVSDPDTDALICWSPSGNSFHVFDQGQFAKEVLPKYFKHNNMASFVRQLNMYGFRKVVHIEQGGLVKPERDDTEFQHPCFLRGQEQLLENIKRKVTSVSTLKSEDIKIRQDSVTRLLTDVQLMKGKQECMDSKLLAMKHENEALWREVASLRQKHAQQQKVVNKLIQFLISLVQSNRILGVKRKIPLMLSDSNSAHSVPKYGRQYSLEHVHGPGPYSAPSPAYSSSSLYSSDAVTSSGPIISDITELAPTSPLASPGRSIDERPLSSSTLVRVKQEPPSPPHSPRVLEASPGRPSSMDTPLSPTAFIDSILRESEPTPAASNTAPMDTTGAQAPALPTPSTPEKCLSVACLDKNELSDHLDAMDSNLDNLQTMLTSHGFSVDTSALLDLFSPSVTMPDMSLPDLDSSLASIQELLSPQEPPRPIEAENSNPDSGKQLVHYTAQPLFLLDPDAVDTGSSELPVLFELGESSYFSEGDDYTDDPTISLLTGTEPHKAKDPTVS

[3] = viability of uninfected HEp-2 cells – cell-based, HTS, cytotoxicity control for RSV inhibitor project, dose response (AID 2410); format: functional; conditions: human respiratory syncytial virus
[4] = target: T2, Methionyl-tRNA synthetase, putative (Trypanosoma brucei brucei, UniProt Q38C91); format: functional, Trypanosoma brucei brucei strain 927/4 GUTat10.1
T2 sequence (Q38C91 whole entry): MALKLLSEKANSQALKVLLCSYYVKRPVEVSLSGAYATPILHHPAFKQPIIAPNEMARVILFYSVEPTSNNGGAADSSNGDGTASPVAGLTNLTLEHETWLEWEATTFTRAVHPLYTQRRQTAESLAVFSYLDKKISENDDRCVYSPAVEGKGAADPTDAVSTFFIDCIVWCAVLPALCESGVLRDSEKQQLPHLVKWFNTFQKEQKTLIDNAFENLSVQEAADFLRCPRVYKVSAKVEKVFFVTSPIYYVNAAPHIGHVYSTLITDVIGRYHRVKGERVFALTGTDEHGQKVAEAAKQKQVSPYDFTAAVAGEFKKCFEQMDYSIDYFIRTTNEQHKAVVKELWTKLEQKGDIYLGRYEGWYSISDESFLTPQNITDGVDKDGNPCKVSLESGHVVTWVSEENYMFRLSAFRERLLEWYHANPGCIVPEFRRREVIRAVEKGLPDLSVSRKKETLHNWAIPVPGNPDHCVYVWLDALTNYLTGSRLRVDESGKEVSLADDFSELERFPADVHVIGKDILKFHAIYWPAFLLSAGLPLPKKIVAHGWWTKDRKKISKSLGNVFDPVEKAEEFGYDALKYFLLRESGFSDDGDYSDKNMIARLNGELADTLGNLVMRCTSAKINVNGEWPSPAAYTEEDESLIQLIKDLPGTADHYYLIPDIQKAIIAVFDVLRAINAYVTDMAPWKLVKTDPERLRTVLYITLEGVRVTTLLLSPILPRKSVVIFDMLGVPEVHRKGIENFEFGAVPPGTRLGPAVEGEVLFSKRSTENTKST

[5] = Counterscreen for inhibitors of Trypanosoma brucei methionyl tRNA synthetase (MetRS): Luminescence-based cell-based high throughput dose response assay to identify compounds that are cytotoxic to Jurkat human T lymphocyte cells.; format: functional
[6] = target: T2, Methionyl-tRNA synthetase, putative; format: functional, Trypanosoma brucei brucei strain 927/4 GUTat10.1; remark: listed apart in the source
[7] = HEK293 Cytotoxicity Assay Measured in Cell-Based System Using Plate Reader - 7071-01_Inhibitor_Dose_CherryPick_Activity_Set2.; format: functional
HEK293 = experiment: viability loss in HEK293T cells – cell-based, ATP luminescence, cherry-pick samples, cytotoxicity control, dose response (AID 687005); format: functional; conditions: Homo sapiens;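 also: cells exposed to compound for 48 hours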
[8] = PAX8-dependent cell viability loss – plate reader, dry powder, dose response (AID 743049); format: functional, cell-based
[9] = COV434 cell viability loss – plate reader, dry powder, SA7, cytotoxicity control for PAX8 inhibitor project, dose response (AID 743145); format: functional, cell-based
[10] = OVCAR4 cell viability loss – plate reader, dry powder, SA11, cytotoxicity control for PAX8 inhibitor project, dose response (AID 743150); format: functional, cell-based; conditions: OVCAR-4
Paired box protein Pax-8 = Paired box protein Pax-8 (Homo sapiens, UniProt Q06710); experiment: PAX8 transcriptional activity inhibition in RMG-I – RMG-I cells, luciferase, cherry-pick, dose response (AID 687027); format: functional, cell-based;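 also: luciferase reporter driven by Pax8 target thyroperoxidase promoter measured by SteadyGlo luminescence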
[11] = toxicity toward immortalized ovarian surface epithelium – cell-based, plate reader, dry powder samples, cytotoxicity control for PAX8 inhibitor project, dose response (AID 743045); format: functional
[12] = OV-90 cell viability loss – plate reader, dry powder, SA8, PAX8 inhibitor project, dose response (AID 743149); format: functional, cell-based
[13] = OVCAR-3 cell viability loss – plate reader, dry powder samples, PAX8 inhibitor project, dose response (AID 743044); format: functional, cell-based
[14] = Luminescence Cell-Based Dose Response HTS to Identify Activators of Luciferase Translation or Activity in H4 […] Cells. [Related pubchem assays: 1829 (Project Summary), 1814 (Primary HTS)]; format: functional
H4 = experiment: Luminescence Cell-Based Dose Response HTS to Identify Activators of 5'UTR Stem-Loop Driven Prion Protein mRNA Translation in H4 Neuroglioblastoma Cells. [Related pubchem assays: 1829 (Project Summary), 1814 (Primary HTS)]; format: functional; conditions: Homo sapiens
[15] = Luminescence Cell-Based Dose Confirmation HTS to Identify Activators of 5'UTR Stem-Loop Driven Alpha-Synuclein mRNA Translation in H4 Neuroglioblastoma Cells. [Related pubchem assays: 1829 (Project Summary), 1814 (Primary HTS)]; format: functional
[16] = target: SWI/SNF-related matrix-associated actin-dependent regulator of chromatin subfamily A member 2 (Homo sapiens, UniProt P51531); experiment: Luminescence-based cell-based high throughput dose response assay to identify activators of the function of SWI/SNF related, matrix associated, actin dependent regulator of chromatin, subfamily a, member 2 (SMARCA2, BRM).; format: functional
[17] = Counterscreen for activators of the function of SWI/SNF related, matrix associated, actin dependent regulator of chromatin, subfamily a, member 2 (SMARCA2, BRM): Luminescence-based cell-based high throughput dose response assay to identify non-selective compounds using the VP16 reporter assay.; format: functional
[18] = HEK-293T viability loss after treatment – luminescence, T-cell screen hits, cytotoxicity control for TCR NF-kB inhibitor project, dose response (AID 489026); format: functional, cell-based;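 also: cells exposed to compound about 14 hours before the viability readout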
[19] = target: T3, Acyl-homoserine lactone acylase PvdQ (Pseudomonas aeruginosa (strain LESB58), UniProt Q9I194); experiment: PvdQ acylase enzyme activity blockers – biochemical, fluorescence, plate reader and imaging, cherry-picks, dose response (AID 493231)
T3 sequence (Q9I194 whole entry): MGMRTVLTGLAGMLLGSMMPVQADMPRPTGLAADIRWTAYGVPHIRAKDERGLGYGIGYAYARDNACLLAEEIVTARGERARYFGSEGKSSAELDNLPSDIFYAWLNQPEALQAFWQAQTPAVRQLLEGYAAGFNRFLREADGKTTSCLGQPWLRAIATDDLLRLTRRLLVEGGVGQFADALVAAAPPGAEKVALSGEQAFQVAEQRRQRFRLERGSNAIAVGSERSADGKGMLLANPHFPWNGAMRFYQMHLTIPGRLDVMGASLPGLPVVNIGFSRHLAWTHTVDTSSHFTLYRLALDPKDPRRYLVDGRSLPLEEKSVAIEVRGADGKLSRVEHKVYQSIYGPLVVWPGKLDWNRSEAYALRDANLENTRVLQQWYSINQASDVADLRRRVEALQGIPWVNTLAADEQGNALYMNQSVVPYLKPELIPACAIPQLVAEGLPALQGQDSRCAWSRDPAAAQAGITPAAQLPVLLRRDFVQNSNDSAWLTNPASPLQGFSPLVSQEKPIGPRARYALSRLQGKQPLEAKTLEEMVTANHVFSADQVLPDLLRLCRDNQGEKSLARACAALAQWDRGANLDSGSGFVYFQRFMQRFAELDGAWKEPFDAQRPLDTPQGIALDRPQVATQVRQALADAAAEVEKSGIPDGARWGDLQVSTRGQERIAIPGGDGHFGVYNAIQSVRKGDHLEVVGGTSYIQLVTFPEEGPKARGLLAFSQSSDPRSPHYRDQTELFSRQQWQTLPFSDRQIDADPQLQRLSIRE

[20] = toxicity toward HepG2 liver cells – cell-based, plate reader, cherry-pick, antagonist series, cytotoxicity control, dose response (AID 743416); format: functional
[21] = blockers of bursicon-stimulated LGR2 cAMP reporter – cell-based, HEK293, CRE-luciferase reporter, cherry pick, set 2, dose response (AID 743343); format: functional;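 also: transfected cells were stimulated with diluted bursicon conditioned medium after compound addition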
[22] = A549 cell cytotoxicity, dose response, cytotoxicity control, plate reader, cherry-pick, antagonist series (AID 743412); format: functional, cell-based
[23] = blockade of melanocortin 4 receptor signaling – cell-based, plate reader, cherry pick, counter-screen for LGR2 antagonist project, dose response (AID 743444); format: functional;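 also: transfected HEK 293 cells stimulated with alpha-MSH peptide; potency of inhibitors of the alpha-MSH evoked signal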
[24] = viability loss in HEK293 cells – cell-based, plate reader, cherry-picked samples, cytotoxicity control, dose response (AID 743446); format: functional
[25] = target: FAD-linked sulfhydryl oxidase ALR (Homo sapiens, UniProt P55789); experiment: ALR-catalysed DTT oxidation blockers – biochemical, H2O2 detection, luminescence, cherry-pick, dose response (AID 493248)
[26] = viability loss in HeLa cells – cytotoxicity control for MgcRacGAP inhibitor project, dose response (AID 624300); format: functional
HeLa = experiment: ATP-based viability loss in HeLa cells – cell-based, CellTiter-Glo luminescence, cherry-pick samples, cytotoxicity control for MITF activator project, dose response (AID 540259); format: functional; conditions: Homo sapiens
[27] = target: T4, Rac GTPase-activating protein 1 (Homo sapiens, UniProt Q9H0H5); experiment: blockers of MgcRacGAP-driven Rac1 GTP hydrolysis – biochemical, ADP Hunter fluorescence, primary and confirmatory, confirmation (AID 624330); format: functional
T4 sequence (Q9H0H5 whole entry): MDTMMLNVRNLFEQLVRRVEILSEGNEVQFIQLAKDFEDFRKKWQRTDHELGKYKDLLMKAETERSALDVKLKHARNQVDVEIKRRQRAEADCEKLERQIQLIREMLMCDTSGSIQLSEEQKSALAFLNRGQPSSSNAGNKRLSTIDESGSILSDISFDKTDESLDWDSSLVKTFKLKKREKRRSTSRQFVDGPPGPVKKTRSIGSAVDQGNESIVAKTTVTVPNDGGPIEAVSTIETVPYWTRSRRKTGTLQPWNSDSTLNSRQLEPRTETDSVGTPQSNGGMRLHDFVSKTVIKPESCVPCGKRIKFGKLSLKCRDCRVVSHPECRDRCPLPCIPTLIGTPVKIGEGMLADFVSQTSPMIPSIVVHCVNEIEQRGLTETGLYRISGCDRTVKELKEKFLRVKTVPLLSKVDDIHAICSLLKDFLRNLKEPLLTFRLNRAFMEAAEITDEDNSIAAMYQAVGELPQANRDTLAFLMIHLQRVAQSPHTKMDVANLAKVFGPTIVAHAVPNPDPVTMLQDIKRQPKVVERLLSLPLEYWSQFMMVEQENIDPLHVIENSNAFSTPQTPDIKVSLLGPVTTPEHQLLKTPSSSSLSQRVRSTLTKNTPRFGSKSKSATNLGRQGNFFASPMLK

Sequence of COUP transcription factor 2 (P24468 whole entry): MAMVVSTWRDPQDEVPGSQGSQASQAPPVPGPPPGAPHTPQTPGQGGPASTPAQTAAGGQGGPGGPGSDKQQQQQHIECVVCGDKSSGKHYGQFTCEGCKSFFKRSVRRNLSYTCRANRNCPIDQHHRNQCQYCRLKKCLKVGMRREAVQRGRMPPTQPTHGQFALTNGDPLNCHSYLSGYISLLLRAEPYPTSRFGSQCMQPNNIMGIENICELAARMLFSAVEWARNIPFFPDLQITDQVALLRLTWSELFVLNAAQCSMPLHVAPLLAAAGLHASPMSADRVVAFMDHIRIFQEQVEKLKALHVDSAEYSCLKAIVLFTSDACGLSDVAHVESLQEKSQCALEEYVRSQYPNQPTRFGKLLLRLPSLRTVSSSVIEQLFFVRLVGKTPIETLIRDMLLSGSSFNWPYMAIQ
Sequence of SWI/SNF-related matrix-associated actin-dependent regulator of chromatin subfamily A member 2 (P51531 whole entry): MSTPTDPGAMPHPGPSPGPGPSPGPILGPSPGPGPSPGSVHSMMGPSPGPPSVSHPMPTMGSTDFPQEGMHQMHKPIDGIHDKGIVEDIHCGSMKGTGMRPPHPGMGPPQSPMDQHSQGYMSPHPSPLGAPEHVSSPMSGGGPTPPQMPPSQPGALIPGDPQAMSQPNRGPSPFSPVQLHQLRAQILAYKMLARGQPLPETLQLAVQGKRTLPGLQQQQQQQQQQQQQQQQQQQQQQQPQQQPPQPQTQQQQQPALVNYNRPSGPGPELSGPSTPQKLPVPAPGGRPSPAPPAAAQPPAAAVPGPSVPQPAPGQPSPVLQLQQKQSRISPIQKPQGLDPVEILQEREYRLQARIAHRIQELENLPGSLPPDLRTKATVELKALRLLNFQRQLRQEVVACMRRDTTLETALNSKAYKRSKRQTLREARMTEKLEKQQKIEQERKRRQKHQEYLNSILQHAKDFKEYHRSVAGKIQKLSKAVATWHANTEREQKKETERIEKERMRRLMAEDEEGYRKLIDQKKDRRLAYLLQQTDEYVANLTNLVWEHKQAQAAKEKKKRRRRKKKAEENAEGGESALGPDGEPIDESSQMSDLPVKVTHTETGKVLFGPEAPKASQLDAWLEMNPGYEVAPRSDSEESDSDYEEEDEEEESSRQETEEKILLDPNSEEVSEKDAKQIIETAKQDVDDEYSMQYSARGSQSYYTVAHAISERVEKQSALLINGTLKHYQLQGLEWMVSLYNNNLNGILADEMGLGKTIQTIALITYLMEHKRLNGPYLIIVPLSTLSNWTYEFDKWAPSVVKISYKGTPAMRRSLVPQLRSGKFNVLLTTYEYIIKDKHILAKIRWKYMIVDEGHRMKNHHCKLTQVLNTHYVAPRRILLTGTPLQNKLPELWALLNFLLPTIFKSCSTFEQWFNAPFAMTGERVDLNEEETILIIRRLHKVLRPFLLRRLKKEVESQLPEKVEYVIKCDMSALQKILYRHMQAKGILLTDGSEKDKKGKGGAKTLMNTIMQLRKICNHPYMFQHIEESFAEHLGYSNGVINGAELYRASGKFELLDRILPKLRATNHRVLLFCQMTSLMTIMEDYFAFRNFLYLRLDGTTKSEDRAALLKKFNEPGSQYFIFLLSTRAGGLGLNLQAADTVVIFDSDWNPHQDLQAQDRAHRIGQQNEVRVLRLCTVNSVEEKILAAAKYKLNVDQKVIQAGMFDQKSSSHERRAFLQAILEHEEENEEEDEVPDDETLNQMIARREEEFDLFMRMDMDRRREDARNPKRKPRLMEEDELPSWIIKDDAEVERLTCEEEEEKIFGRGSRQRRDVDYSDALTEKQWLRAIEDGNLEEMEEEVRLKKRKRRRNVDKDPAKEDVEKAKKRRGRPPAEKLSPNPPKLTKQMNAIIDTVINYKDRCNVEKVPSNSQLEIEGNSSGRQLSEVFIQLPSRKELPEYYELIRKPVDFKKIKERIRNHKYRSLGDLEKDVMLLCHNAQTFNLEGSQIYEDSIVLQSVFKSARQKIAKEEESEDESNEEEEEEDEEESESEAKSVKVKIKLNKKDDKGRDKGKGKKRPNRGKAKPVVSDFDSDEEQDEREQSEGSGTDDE
Sequence of Paired box protein Pax-8 (Q06710 whole entry): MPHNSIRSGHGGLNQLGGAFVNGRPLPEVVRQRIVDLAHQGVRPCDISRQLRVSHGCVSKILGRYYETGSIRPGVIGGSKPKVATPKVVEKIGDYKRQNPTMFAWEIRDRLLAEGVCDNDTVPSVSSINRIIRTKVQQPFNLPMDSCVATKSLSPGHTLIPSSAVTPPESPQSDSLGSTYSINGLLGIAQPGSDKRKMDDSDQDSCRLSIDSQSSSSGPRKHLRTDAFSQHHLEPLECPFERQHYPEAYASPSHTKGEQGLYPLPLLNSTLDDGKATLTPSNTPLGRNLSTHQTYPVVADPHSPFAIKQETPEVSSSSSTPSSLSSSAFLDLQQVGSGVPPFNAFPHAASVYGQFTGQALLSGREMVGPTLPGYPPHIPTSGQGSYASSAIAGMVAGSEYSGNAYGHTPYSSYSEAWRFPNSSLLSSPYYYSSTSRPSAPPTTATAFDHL
Sequence of FAD-linked sulfhydryl oxidase ALR (P55789 whole entry): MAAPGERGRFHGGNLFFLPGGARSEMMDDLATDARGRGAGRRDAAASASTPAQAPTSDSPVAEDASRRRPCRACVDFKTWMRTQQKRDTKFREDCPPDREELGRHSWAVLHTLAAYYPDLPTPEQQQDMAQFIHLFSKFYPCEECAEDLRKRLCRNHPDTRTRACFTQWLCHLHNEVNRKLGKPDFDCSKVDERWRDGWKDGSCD

## Cc1nnsc1NC(=O)OCc1ccc(C(C)(C)C)cc1
[1]
  IC50: 10.4 µM (inactive)

## Cc1nc2c(-c3ccccc3)cnn2c(N)c1-c1ccccc1
[2]
  EC50: < 0.16 µM (active)
[3]
  CC50: 17.2 µM (active)
[1]
  IC50: > 9.5 µM (active)

## O=c1c(OC2OC(CO)C(O)C(O)C2OC2OC(CO)C(O)C(O)C2O)c(-c2ccc(O)cc2)oc2cc(O)cc(O)c12 (centres undefined)
[4]
  IC50: 20.9 µM (inactive)
[5]
  IC50: 83.3 µM (inactive)
[6]
  IC50: 38.8 µM (inactive)

## C[C@@H]1CCCCO[C@@H](CN(C)S(=O)(=O)c2ccccc2)[C@H](C)CN([C@@H](C)CO)C(=O)c2cc(NC(=O)Nc3ccc(F)cc3)ccc2O1
[7]
  AC50: 21.6 µM (active)
HEK293
  AC50: 21.6 µM (active)

## Cc1ccc(-c2csc(NC3OC(=O)c4ccccc43)n2)cc1 (centres undefined)
[8]
  AC50: 13 µM (active)
[9]
  AC50: 0.0641 µM (active)
[10]
  AC50: 17.3 µM (active)
Paired box protein Pax-8
  AC50: 7.58 µM (active)
[11]
  AC50: 33.7 µM (active)
[12]
  AC50: 23.1 µM (active)
[13]
  AC50: 28.3 µM (active)

## Nc1cc(C2CCCC2)nn1-c1ccccc1
[14]
  EC50: 7.02 µM (active)
H4
  EC50: 6.8 µM (active)
[15]
  EC50: 0.13 µM (active)
[16]
  EC50: > 91.2 µM (inactive)
[17]
  EC50: > 91.2 µM (inactive)

## Cc1ccc2nc(-c3ccc4c(c3)OCCO4)cn2c1
[18]
  IC50: > 80 µM (inactive)
[19]
  AC50: 1.27 µM (active)
[20]
  AC50: 2.18 µM (active)
[21]
  AC50: 0.366 µM (active)
[22]
  AC50: 2.56 µM (active)
[23]
  AC50: 0.527 µM (active)
[24]
  AC50: 2.21 µM (active)

## C(=N\Nc1nc2ccccc2[nH]1)/c1c[nH]c2ccccc12
[4]
  IC50: 11.7 µM (inactive)
[25]
  AC50: 0.309 µM (active)
[26]
  CC50: 81.9 µM (active)
[5]
  IC50: 34.8 µM (inactive)
[6]
  IC50: 32.2 µM (inactive)
HeLa
  AC50: 40 µM (active)
[27]
  IC50: 35.8 µM (active)

## O=C(C[C@H]1CC[C@@H]2[C@H](COC[C@@H](O)CN2C(=O)c2cnccn2)O1)NCc1ccc(Oc2ccccc2)cc1
[7]
  AC50: 35.7 µM (active)
HEK293
  AC50: 35.7 µM (active)

## COc1ccc(/N=C/c2nc(-c3ccco3)oc2O)cc1
[16]
  EC50: > 91.2 µM (inactive)
[17]
  EC50: > 91.2 µM (inactive)
